The values that follow come from ChEMBL document CHEMBL1151826, “Sulfated steroids: ptilosteroids A-C and ptilosaponosides A and B from the Solomon Islands marine sponge Ptilocaulis spiculifer” (J Nat Prod, 2009).

The assay relates to KB. The assay is described as follows: Cytotoxicity against human KB cells. In kind it is functional, cell-based.

SMILES strings stand for the structures.

As to `C=CC1C(O)CC2C3CCC4C(O)C(O)C(OS(=O)(=O)O)CC4(C)C3CCC12C` (stereo not given), the Activity result is “Not toxic”.

In the case of `C=C[C@H]1CC[C@H]2[C@@H]3CC[C@H]4[C@@H](O[C@@H]5O[C@H](CO)[C@@H](O)[C@H](OS(=O)(=O)O)[C@H]5O)[C@@H](O)CC[C@]4(CO)[C@H]3CC[C@]12C`, the Activity entry was “Not toxic”.

For `C=CC1CC(O)C2C3CCC4C(O)C(O)C(OS(=O)(=O)O)CC4(C)C3CCC12C` (stereo not given), the Activity result was “Not toxic”.

In the case of `C=C[C@H]1CC[C@H]2[C@@H]3CC[C@H]4[C@@H](O[C@@H]5O[C@H](CO)[C@@H](O)[C@H](OS(=O)(=O)O)[C@H]5O)[C@@H](OS(=O)(=O)O)CC[C@]4(CO)[C@H]3CC[C@]12C`, the Activity entry was “Not toxic”.

For `C=CC1C(O)C(O)C2C3CCC4C(O)C(O)C(OS(=O)(=O)O)CC4(C)C3CCC12C` (stereo not given), the Activity result was “Not toxic”.
